Data on twelve molecules can be found in US6489315B1, “Cyclic compounds, their production and use” (Takeda Chemical Industries, Ltd., priority 1995, dated 2002).

In general, melting point refers to the temperature, or range, at which the solid turns liquid.

As to `CS(=O)(=O)NCc1cc(-c2ccccc2)c2c(n1)OCCN(Cc1cc(C(F)(F)F)cc(C(F)(F)F)c1)C2=O` [Example 49, 4-[3,5-Bis(trifluoromethyl)benzyl]-2,3,4,5-tetrahydro-8-methanesulfonylaminomethyl-5-oxo-6-phenylpyrido[3,2-f][1,4]oxazepine], the melting point fell in the range of 194 to 195 °C.
To `Cc1cnc2c(c1-c1ccccc1)C(=O)N(Cc1cc(C(F)(F)F)cc(C(F)(F)F)c1)CCN(C)C2=O` [Example 50, 6-[3,5-Bis(trifluoromethyl)benzyl]-5,6,7,8,9,10-hexahydro-3,9-dimethyl-5,10-dioxo-4-phenylpyrido(2,3-f][1,4]diazocine] belongs 203 to 205 °C; to `CN1CCN(Cc2cc(C(F)(F)F)cc(C(F)(F)F)c2)C(=O)c2c(-c3ccccc3)ccnc2C1=O` [Example 51, 6-[3,5-Bis(trifluoromethyl)benzyl]-5,6,7,8,9,10-hexahydro-9-methyl-5,10-dioxo-4-phenylpyrido[2,3-f][1,4]diazocine], 167 to 169 °C; to `Cc1cnc2c(c1-c1ccccc1)C(=O)N(Cc1ccccc1)CCN(C)C2=O` [Example 52, 6-Benzyl-5,6,7,8,9,10-hexahydro-3,9-dimethyl-5,10-dioxo-4-phenylpyrido[2,3-f][1,4]diazocine], 183 to 184 °C.
Then `CCN1CCN(Cc2cc(C(F)(F)F)cc(C(F)(F)F)c2)C(=O)c2c(ncc(C)c2-c2ccccc2)C1=O` [Example 53, 6-[3,5-Bis(trifluoromethyl)benzyl]-9-ethyl-5,6,7,8,9,10-hexahydro-3-methyl-5,10-dioxo-4-phenylpyrido[2,3-f][1,4]diazocine], with 228 to 229 °C; and `Cc1cnc2c(c1-c1ccccc1)C(=O)N(Cc1cc(C(F)(F)F)cc(C(F)(F)F)c1)CCCN(C)C2=O` [Example 54, 6-[3,5-Bis(trifluoromethyl)benzyl]-6,7,8,9,10,11-hexahydro-3,10-dimethyl-5,11-dioxo-4-phenyl-5H-pyrido[2,3-g][1,5]diazonine], with 247 to 249 °C; and `CNC(=O)c1cc(-c2ccccc2)c2c(n1)OCCN(Cc1cc(C(F)(F)F)cc(C(F)(F)F)c1)C2=O` [Example 58, 4-[3,5-Bis(trifluoromethyl)benzyl]-N-methyl-2,3,4,5-tetrahydro-5-oxo-6-phenylpyrido[3,2-f][1,4]oxazepine-8-carboxamide], with 145 °C (dec.).
Then `CN(C)C(=O)c1cc(-c2ccccc2)c2c(n1)OCCN(Cc1cc(C(F)(F)F)cc(C(F)(F)F)c1)C2=O` [Example 59, 4-[3,5-Bis(trifluoromethyl)benzyl]-N,N-dimethyl-2,3,4,5-tetrahydro-5-oxo-6-phenylpyrido[3,2-f][1,4]oxazepine-8-carboxamide], with 235 to 236 °C; and `CCCCNC(=O)c1cc(-c2ccccc2)c2c(n1)OCCN(Cc1cc(C(F)(F)F)cc(C(F)(F)F)c1)C2=O` [Example 60, 4-[3,5-Bis(trifluoromethyl)benzyl]-N-n-butyl-2,3,4,5-tetrahydro-5-oxo-6-phenylpyrido[3,2-f][1,4]oxazepine-8-carboxamide], with 194 to 196 °C.
Regarding `O=C(c1cc(-c2ccccc2)c2c(n1)OCCN(Cc1cc(C(F)(F)F)cc(C(F)(F)F)c1)C2=O)N1CCCCC1` [Example 61, 4-[3,5-Bis(trifluoromethyl)benzyl]-2,3,4,5-tetrahydro-5-oxo-6-phenyl-8-piperidinocarbonylpyrido[3,2-f][1,4]oxazepine], the melting point is 218 to 220 °C.
For `COc1cc(CN2CCOc3nccc(-c4ccccc4)c3C2=O)cc(OC)c1OC` [Example 64, 2,3,4,5-Tetrahydro-5-oxo-6-phenyl-4-(3,4,5-trimethoxybenzyl)pyrido[3,2-f][1,4]oxazepine], the melting point was 177 to 179 °C.
Consider `O=C1c2c(-c3ccccc3)ccnc2OCCN1Cc1ccc(Cl)c(Cl)c1` [Example 65, 4-(3,4-Dichlorobenzyl)-2,3,4,5-tetrahydro-5-oxo-6-phenylpyrido[3,2-f][1,4]oxazepine], for which the melting point lay within 189 to 192 °C.
